According to paper PMC8787483 (mBio, 2022):

Target: Gnp2 (CR_09920W) (Candida albicans, UniProt A0A1D8PU37)
Settings: 10 mM proline as sole carbon source, YNB, ammonium sulfate, pH 4.5, 37 °C, 6 h

Sequence of Gnp2 (CR_09920W) (A0A1D8PU37 entry or part of it): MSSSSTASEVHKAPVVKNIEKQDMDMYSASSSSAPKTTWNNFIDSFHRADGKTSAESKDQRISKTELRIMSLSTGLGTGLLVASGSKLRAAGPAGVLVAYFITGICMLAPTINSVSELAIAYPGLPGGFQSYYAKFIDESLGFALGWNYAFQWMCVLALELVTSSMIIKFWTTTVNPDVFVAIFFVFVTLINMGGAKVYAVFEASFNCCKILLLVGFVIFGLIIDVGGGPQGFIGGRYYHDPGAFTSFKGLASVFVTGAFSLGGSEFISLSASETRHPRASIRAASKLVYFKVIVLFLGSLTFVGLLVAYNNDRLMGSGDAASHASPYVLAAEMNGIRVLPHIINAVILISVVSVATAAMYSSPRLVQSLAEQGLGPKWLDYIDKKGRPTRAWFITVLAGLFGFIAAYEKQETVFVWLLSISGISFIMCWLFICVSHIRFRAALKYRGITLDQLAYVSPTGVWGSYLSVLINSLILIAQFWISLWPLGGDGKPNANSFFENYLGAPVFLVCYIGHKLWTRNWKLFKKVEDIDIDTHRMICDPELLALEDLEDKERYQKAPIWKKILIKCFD

SMILES: O=C(O)[C@@H]1CCCN1 [proline]
- LC-MS of extracellular proline, wild type vs gnp2 deletion vs complemented cells: extracellular proline concentration was significantly reduced in the wild type and the GNP2 complemented strain
